Test results taken from PMC10287566, “Signaling-specific inhibition of the CB1 receptor for cannabis use disorder: phase 1 and phase 2a randomized trials” (Nature Medicine, 2023).
Values joined by “and” are separate entries in the source; they are usually repeats but may differ in a detail not shown here. Equal entries are not always repeated.

Legend:
Assay in all cases: Eurofins binding screen
Adrenergic alpha1 = settings: 10 µM
[1] = biological target: Norepinephrine transporter NET (Homo sapiens, UniProt P23975)
Melatonin MT1 (ML1A) = Melatonin MT1 (ML1A) (Homo sapiens, UniProt P48039)
Adrenergic alpha2 = settings: 10 µM
Serotonin 5-HT1A = Serotonin 5-HT1A (Homo sapiens, UniProt P08908)
Chain of Serotonin 5-HT1A (P08908 whole entry): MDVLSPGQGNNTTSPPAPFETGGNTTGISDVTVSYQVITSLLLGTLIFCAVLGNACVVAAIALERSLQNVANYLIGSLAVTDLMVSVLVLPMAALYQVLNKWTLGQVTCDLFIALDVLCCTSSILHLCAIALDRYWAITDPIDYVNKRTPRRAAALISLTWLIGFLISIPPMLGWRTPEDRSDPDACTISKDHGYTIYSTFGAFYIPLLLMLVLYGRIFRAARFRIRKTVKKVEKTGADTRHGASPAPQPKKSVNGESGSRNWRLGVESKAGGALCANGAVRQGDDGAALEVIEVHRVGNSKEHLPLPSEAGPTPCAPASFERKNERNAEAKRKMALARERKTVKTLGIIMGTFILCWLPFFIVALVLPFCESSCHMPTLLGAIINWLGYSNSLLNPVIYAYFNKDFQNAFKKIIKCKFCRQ

[2] = biological target: PR (progesterone receptor) (Homo sapiens, UniProt P06401)
Chain of PR (progesterone receptor) (P06401 whole entry): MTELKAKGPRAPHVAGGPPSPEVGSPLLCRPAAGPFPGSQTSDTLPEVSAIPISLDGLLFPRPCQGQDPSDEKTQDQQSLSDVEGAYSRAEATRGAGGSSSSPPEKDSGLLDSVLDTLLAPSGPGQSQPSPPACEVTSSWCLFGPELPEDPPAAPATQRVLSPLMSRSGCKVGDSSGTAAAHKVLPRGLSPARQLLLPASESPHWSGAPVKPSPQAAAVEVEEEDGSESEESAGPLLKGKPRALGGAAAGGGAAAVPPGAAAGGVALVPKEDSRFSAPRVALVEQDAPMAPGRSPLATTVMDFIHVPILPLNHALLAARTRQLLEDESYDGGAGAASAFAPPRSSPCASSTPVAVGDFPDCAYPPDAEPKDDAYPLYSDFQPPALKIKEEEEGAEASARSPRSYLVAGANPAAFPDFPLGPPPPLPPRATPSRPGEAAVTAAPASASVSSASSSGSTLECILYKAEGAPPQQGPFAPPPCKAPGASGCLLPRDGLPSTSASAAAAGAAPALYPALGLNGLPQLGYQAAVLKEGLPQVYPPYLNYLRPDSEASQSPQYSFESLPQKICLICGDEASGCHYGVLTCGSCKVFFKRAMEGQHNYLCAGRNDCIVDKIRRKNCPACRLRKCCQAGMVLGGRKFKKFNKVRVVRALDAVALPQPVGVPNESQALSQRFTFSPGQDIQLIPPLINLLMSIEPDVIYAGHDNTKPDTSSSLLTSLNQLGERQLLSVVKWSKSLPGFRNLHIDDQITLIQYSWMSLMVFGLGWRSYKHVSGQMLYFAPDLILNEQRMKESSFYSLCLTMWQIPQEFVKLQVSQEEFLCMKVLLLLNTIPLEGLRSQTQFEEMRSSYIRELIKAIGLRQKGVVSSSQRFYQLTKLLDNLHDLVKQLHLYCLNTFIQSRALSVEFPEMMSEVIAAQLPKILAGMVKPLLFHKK

Serotonin 5-HT2A = Serotonin 5-HT2A (Homo sapiens, UniProt P28223)
Chain of Serotonin 5-HT2A (P28223 whole entry): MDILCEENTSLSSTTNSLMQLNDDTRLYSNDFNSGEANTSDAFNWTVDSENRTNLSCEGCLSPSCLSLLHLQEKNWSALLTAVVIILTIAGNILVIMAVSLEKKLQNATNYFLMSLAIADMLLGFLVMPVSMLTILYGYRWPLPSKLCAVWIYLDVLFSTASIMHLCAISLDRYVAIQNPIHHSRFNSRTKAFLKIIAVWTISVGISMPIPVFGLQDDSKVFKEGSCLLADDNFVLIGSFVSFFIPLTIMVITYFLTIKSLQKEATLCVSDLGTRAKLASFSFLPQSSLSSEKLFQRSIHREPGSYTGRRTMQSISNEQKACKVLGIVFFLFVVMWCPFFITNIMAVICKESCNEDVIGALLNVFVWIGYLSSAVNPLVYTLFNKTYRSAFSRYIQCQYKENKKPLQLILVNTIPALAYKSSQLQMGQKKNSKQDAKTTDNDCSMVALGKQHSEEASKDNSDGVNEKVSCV

Galanin GAL1 = Galanin GAL1 (Homo sapiens, UniProt P47211)
Chain of Galanin GAL1 (P47211 whole entry): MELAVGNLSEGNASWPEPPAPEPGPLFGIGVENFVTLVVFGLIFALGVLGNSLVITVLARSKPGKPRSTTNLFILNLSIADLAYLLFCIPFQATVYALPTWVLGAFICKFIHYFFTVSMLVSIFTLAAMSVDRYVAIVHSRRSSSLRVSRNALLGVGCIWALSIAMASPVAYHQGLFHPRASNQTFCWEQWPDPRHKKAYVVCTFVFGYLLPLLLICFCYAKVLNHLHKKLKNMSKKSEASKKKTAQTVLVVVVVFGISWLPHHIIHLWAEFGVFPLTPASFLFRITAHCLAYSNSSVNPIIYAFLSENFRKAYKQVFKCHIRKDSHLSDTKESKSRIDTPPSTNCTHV

ER = settings: 10 µM
Neurokinin NK1 = Neurokinin NK1 (Homo sapiens, UniProt P25103)
Angiotensin-II AT1 = Angiotensin-II AT1 (Homo sapiens, UniProt P30556)
Chain of Angiotensin-II AT1 (P30556 whole entry): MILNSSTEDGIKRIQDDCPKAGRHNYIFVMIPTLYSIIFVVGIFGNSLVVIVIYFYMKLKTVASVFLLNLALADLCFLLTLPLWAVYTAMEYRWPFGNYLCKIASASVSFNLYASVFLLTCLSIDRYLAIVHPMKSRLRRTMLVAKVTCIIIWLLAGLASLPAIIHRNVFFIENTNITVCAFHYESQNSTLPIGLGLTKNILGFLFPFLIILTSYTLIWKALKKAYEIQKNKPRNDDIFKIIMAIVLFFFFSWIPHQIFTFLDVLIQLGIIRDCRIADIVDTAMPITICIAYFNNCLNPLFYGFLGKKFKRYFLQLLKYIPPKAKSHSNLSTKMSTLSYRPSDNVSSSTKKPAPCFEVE

Endothelin ETA = Endothelin ETA (Homo sapiens, UniProt P25101)
GABA = settings: 10 µM
Potassium channels SKCa = settings: 10 µM
Bombesin BB = settings: 10 µM
Dopamine D1 = Dopamine D1 (Homo sapiens, UniProt P21728)
Chain of Dopamine D1 (P21728 whole entry): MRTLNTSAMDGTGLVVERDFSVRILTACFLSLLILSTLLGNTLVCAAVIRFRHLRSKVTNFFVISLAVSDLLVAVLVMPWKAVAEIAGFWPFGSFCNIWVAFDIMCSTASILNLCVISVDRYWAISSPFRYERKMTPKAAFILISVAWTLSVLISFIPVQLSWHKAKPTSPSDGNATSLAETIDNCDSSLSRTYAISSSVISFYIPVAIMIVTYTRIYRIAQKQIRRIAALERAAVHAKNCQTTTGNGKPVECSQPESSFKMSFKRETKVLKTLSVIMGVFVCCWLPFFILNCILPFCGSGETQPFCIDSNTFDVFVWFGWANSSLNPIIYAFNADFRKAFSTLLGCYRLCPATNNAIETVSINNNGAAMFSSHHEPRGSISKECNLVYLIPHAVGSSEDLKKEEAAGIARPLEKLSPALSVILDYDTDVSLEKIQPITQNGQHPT

Dopamine D2S = Dopamine D2S (Homo sapiens, UniProt P14416)
Calcium channels Ca2+-L = settings: 10 µM
Angiotensin-II AT2 = Angiotensin-II AT2 (Homo sapiens, UniProt P50052)
Cl- channel = settings: 10 µM
Adenosine A3 = Adenosine A3 (Homo sapiens, UniProt P0DMS8)
Chain of Adenosine A3 (P0DMS8 whole entry): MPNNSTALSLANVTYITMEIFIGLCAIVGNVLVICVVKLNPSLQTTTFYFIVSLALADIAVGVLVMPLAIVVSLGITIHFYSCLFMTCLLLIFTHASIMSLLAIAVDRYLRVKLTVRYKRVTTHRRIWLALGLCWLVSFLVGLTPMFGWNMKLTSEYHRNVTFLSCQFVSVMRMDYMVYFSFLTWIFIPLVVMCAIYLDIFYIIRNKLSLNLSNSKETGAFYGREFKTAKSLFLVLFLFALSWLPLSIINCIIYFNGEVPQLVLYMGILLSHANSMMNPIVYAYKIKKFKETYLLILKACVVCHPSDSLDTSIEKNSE

Kinase PDGF = settings: 10 µM
Adenosine A2A = Adenosine A2A (Homo sapiens, UniProt P29274)
[3] = biological target: Cholecystokinin CCK2 (CCKB) (Homo sapiens, UniProt P32239)
Glutamate PCP = settings: 10 µM
Somatostatin sst = settings: 10 µM
[4] = biological target: PBR (peripheral benzodiazepine receptor) (Rattus norvegicus, UniProt P16257); settings: for Percent inhibition of control specific binding: 10 µM
Chain of PBR (peripheral benzodiazepine receptor) (P16257 whole entry): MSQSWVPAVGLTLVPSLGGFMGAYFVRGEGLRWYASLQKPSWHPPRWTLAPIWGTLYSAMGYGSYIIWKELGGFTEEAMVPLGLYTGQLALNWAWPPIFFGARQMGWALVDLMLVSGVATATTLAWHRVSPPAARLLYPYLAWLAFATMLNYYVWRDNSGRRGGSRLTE

Chemokines CXCR2 (IL-8B) = Chemokines CXCR2 (IL-8B) (Homo sapiens, UniProt P25025)
Serotonin 5-HT5a = Serotonin 5-HT5a (Homo sapiens, UniProt P47898)
[5] = biological target: Serotonin transporter SET (Homo sapiens, UniProt P31645)
Serotonin 5-HT2C = Serotonin 5-HT2C (Homo sapiens, UniProt P28335)
Chain of Serotonin 5-HT2C (P28335 33-458): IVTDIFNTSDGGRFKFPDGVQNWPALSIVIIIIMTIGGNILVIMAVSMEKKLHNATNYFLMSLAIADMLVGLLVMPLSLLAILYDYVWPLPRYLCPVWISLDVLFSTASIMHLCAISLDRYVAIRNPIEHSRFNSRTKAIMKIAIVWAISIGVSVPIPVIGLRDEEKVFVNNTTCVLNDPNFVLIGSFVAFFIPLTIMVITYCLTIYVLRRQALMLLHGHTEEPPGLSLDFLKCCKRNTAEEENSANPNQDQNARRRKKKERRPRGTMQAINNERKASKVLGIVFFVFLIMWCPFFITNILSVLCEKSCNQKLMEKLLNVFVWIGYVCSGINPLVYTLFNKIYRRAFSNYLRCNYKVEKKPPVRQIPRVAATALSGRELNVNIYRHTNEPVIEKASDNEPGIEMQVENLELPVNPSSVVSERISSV

[6] = tested on: Sodium channels Na+-site2; settings: 10 µM
Melanocortin MC4 = Melanocortin MC4 (Homo sapiens, UniProt P32245)
Histamine H2 = Histamine H2 (Homo sapiens, UniProt P25021)
Bradykinin B2 = Bradykinin B2 (Homo sapiens, UniProt P30411)
sigma = settings: 10 µM
Endothelin ETB = Endothelin ETB (Homo sapiens, UniProt P24530)
Chain of Endothelin ETB (P24530 27-442): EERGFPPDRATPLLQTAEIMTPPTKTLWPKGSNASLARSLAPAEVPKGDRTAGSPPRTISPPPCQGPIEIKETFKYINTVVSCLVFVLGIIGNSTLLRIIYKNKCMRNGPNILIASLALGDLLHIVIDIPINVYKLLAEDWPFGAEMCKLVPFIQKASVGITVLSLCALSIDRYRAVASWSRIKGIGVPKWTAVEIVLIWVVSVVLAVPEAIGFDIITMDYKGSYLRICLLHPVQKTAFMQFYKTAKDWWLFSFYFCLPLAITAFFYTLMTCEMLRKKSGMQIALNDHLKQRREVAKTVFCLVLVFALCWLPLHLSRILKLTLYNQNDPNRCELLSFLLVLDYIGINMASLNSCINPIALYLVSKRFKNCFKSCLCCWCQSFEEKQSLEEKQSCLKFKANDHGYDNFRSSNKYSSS

Prostanoid EP2 = Prostanoid EP2 (Homo sapiens, UniProt P43116)
Neurokinin NK2 = Neurokinin NK2 (Homo sapiens, UniProt P21452)
Chain of Neurokinin NK2 (P21452 whole entry): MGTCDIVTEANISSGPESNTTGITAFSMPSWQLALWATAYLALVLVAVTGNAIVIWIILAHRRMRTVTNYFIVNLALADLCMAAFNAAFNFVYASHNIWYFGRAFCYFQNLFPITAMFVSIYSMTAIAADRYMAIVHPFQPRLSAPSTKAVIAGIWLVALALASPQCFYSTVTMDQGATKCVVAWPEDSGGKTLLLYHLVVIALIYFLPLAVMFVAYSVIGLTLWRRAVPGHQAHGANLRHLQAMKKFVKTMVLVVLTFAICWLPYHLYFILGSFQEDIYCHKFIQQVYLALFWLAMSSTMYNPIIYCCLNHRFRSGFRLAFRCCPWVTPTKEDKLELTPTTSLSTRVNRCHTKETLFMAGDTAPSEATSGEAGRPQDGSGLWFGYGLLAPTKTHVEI

Adrenergic beta1 = Adrenergic beta1 (Homo sapiens, UniProt P08588)
Serotonin 5-HT3 = Serotonin 5-HT3 (Homo sapiens, UniProt P46098)
Dopamine D5 = Dopamine D5 (Homo sapiens, UniProt P21918)
Opioid mu (MOP) = Opioid mu (MOP) (Homo sapiens, UniProt P35372)
Neuropeptide Y Y1 = Neuropeptide Y Y1 (Homo sapiens, UniProt P25929)
Cannabinoid CB1 = Cannabinoid CB1 (Homo sapiens, UniProt P21554)
NOP (ORL1) = NOP (ORL1) (Homo sapiens, UniProt P41146)
[7] = read-out: Percent inhibition of control specific binding

For `COc1ccc(CO[C@H]2CC[C@@]3(C)C(=CC[C@H]4[C@@H]5CC[C@H](C(C)=O)[C@@]5(C)CC[C@@H]43)C2)cc1` [AEF0117, 3β-(4-methoxybenzyloxy)pregn-5-en-20-one], the “Percent inhibition of control specific binding” value (shortened to “Percent inhibition”) (Adrenergic alpha1) was -5%, the inhibition at 10 µM [1, 7] was -5% and the inhibition at 10 µM (Melatonin MT1 (ML1A); [7]) was -11%. For the same compound, the “Percent inhibition” value (Adrenergic alpha2) was 7%, the inhibition at 10 µM (Serotonin 5-HT1A; [7]) was -11% and the inhibition at 10 µM [2, 7] was 29%. For the same compound, the inhibition at 10 µM (Serotonin 5-HT2A; [7]) was 2%, the inhibition at 10 µM (Galanin GAL1; [7]) was -4% and the “Percent inhibition” value (ER) was 31%. For the same compound, the inhibition at 10 µM (Neurokinin NK1; [7]) was -18%, the inhibition at 10 µM (Angiotensin-II AT1; [7]) was 7% and the inhibition at 10 µM (Endothelin ETA; [7]) was -4%. The “Percent inhibition” value (GABA) was 9%, the “Percent inhibition” value (Potassium channels SKCa) was 12% and the “Percent inhibition” value (Bombesin BB) was 12%. For the same compound, the inhibition at 10 µM (Dopamine D1; [7]) was -12%, the inhibition at 10 µM (Dopamine D2S; [7]) was -1% and the “Percent inhibition” value (Calcium channels Ca2+-L) was -1%. For the same compound, the inhibition at 10 µM (Angiotensin-II AT2; [7]) was -8%, the “Percent inhibition” value (Cl- channel) was -4% and the inhibition at 10 µM (Adenosine A3; [7]) was -20%. For the same compound, the “Percent inhibition” value (Kinase PDGF) was -8%, the inhibition at 10 µM (Adenosine A2A; [7]) was -3% and the inhibition at 10 µM [3, 7] was -35%. For the same compound, the “Percent inhibition” value (Glutamate PCP) was 2%, the “Percent inhibition” value (Somatostatin sst) was -4% and the inhibition at 10 µM [4, 7] was 4%. For the same compound, the inhibition at 10 µM (Chemokines CXCR2 (IL-8B); [7]) was -1%, the inhibition at 10 µM (Serotonin 5-HT5a; [7]) was 1% and the inhibition at 10 µM [5, 7] was 8%. For the same compound, the inhibition at 10 µM (Serotonin 5-HT2C; [7]) was 4%, the “Percent inhibition” value [6] was 5% and the inhibition at 10 µM (Melanocortin MC4; [7]) was -8%. The inhibition at 10 µM (Histamine H2; [7]) was 3%, the inhibition at 10 µM (Bradykinin B2; [7]) was -1% and the “Percent inhibition” value (sigma) was -4%. The inhibition at 10 µM (Endothelin ETB; [7]) was 2%, the inhibition at 10 µM (Prostanoid EP2; [7]) was 27% and the inhibition at 10 µM (Neurokinin NK2; [7]) was -28%. The inhibition at 10 µM (Adrenergic beta1; [7]) was 3%, the inhibition at 10 µM (Serotonin 5-HT3; [7]) was -7% and the inhibition at 10 µM (Dopamine D5; [7]) was -2%. It also gave an inhibition at 10 µM (Opioid mu (MOP); [7]) of -10%, an inhibition at 10 µM (Neuropeptide Y Y1; [7]) of -9% and an inhibition at 10 µM (Cannabinoid CB1; [7]) of 11%. For the same compound, the inhibition at 10 µM (NOP (ORL1); [7]) was -7%.
For `CC(=O)[C@H]1CC[C@H]2[C@@H]3CC=C4C[C@@H](O)CC[C@]4(C)[C@H]3CC[C@]12C` [pregnenolone, reference compound], the “Percent inhibition” value (Adrenergic alpha1) was 1%, the “Percent inhibition” value ([1]; 10 µM) was -12% and the “Percent inhibition” value (Melatonin MT1 (ML1A); 10 µM) was 26%. For the same compound, the “Percent inhibition” value (Adrenergic alpha2) was -2%, the “Percent inhibition” value (Serotonin 5-HT1A; 10 µM) was 12% and the “Percent inhibition” value ([2]; 10 µM) was > 80% and 87%. The “Percent inhibition” value (Serotonin 5-HT2A; 10 µM) was -1%, the “Percent inhibition” value (Galanin GAL1; 10 µM) was -16% and the “Percent inhibition” value (ER) was 26%. The “Percent inhibition” value (Neurokinin NK1; 10 µM) was 17%, the “Percent inhibition” value (Angiotensin-II AT1; 10 µM) was -28% and the “Percent inhibition” value (Endothelin ETA; 10 µM) was -3%. The “Percent inhibition” value (GABA) was 10%, the “Percent inhibition” value (Potassium channels SKCa) was -8% and the “Percent inhibition” value (Bombesin BB) was -18%. The “Percent inhibition” value (Dopamine D1; 10 µM) was -8%, the “Percent inhibition” value (Dopamine D2S; 10 µM) was 5% and the “Percent inhibition” value (Calcium channels Ca2+-L) was -19%. The “Percent inhibition” value (Angiotensin-II AT2; 10 µM) was -18%, the “Percent inhibition” value (Cl- channel) was 29% and the “Percent inhibition” value (Adenosine A3; 10 µM) was 11%. For the same compound, the “Percent inhibition” value (Kinase PDGF) was -15%, the “Percent inhibition” value (Adenosine A2A; 10 µM) was -1% and the “Percent inhibition” value ([3]; 10 µM) was -38%. For the same compound, the “Percent inhibition” value (Glutamate PCP) was 5%, the “Percent inhibition” value (Somatostatin sst) was -8% and the “Percent inhibition” value [4] was > 40%. For the same compound, the “Percent inhibition” value ([4]; listed as Preg) was 42%, the “Percent inhibition” value (Chemokines CXCR2 (IL-8B); 10 µM) was -10% and the “Percent inhibition” value (Serotonin 5-HT5a; 10 µM) was 11%. The “Percent inhibition” value ([5]; 10 µM) was 1%, the “Percent inhibition” value (Serotonin 5-HT2C; 10 µM) was -9% and the “Percent inhibition” value [6] was 23%. The “Percent inhibition” value (Melanocortin MC4; 10 µM) was -15%, the “Percent inhibition” value (Histamine H2; 10 µM) was 9% and the “Percent inhibition” value (Bradykinin B2; 10 µM) was -9%. For the same compound, the “Percent inhibition” value (sigma) was 26%, the “Percent inhibition” value (Endothelin ETB; 10 µM) was 4% and the “Percent inhibition” value (Prostanoid EP2; 10 µM) was 24%. The “Percent inhibition” value (Neurokinin NK2; 10 µM) was -1%, the “Percent inhibition” value (Adrenergic beta1; 10 µM) was 4% and the “Percent inhibition” value (Serotonin 5-HT3; 10 µM) was 6%. The “Percent inhibition” value (Dopamine D5; 10 µM) was -4%, the “Percent inhibition” value (Opioid mu (MOP); 10 µM) was -5% and the “Percent inhibition” value (Neuropeptide Y Y1; 10 µM) was -11%. The “Percent inhibition” value (Cannabinoid CB1; 10 µM) was 10% and the “Percent inhibition” value (NOP (ORL1); 10 µM) was 2%.
